Molecular target: T1, Endothelial lipase (Homo sapiens, UniProt Q9Y5X9)
T1 sequence (Q9Y5X9 whole entry): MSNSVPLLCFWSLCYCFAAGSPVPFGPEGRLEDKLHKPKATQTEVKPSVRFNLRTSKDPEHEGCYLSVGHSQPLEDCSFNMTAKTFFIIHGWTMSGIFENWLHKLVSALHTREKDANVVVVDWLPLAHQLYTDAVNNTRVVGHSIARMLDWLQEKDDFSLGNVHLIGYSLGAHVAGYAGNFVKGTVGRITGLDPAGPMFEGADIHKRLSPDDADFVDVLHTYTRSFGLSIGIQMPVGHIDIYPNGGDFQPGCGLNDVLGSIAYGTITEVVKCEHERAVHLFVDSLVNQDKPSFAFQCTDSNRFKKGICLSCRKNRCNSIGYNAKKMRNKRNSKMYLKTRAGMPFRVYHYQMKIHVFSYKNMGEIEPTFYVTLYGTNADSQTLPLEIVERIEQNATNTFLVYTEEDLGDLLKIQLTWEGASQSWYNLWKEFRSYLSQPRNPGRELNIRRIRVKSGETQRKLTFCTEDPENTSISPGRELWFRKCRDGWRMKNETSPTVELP
Test: Inhibition Assay: After the present compound dissolved in DMSO was added to become 0.5% DMSO to the reaction buffer consisting of 20 mM tris hydrochloric acid (pH7.4), bovine serum albumin (0.5%), calcium chloride (4 mM), sodium chloride (150 mM) and human HDL (2 mg/ml), the EL enzyme was added (total volume was 20 μl). After 4-hour reaction at 37 C., non-esterified fatty acid (NEFA) generated from HDL by EL was measured with a commercially available assay kit and the amount of NEFA was used as an index of enzyme activity. Considering the enzyme activity without the inhibitor as a control value, the inhibition rate of each concentration of the present compound was calculated, and 50% inhibitory concentration (IC50 value) was calculated from an inhibition curve.

N#CC1(NC(=O)Cc2nnc(Cc3nc4ccc(-c5ccc(Cl)s5)c(F)c4s3)o2)CC1
IC50: 14 nM
